Tests used:
[1] = system: Rheumatoid arthritis human fibroblast-like synoviocytes (HFLS-RA); assay: Human synoviocytes + Fas antibody cell viability assay (Cell Titer-Glo); format: cell-based; settings: with anti-human CD95 (Fas) antibody (300 ng/ml), 72 hrs, read-out: EC50 synoviocyctes + FAS
Method: Rheumatoid arthritis human fibroblast-like synoviocytes (HFLS-RA, Cell Applications Inc.) were seeded in 96-well plates at 3000 cells per well in 100 ul of complete synoviocyte growth medium (Cell Applications Inc.) one day prior to treatment. Triplicate wells of cells were treated by the addition of 50 ul of diluted compound (0.01 to 100 nM) in combination with 50 ul of anti-human CD95 (Fas) antibody (300 ng/ml; clone CH-11, Beckman Coulter/Immunotech) and incubated at 37° C. (5% CO2) for 72 hrs. Cell viability was measured by Cell Titer-Glo Luminescent Assay (Promega). Briefly, 100 ul of media was removed from wells and an equal volume of Cell Titer-Glo Reagent was added to the cells. The plates were mixed for 2 minutes on an orbital shaker and after a 10-minute incubation period at room temperature, the emitted luminescence was detected using a Tecan Infinite F200 spectrophotometer.
(§1) The percentage viability of compound-treated cells was expressed as a fraction of the absorbance/luminescence signal obtained from non-treated cells. EC50 values (corresponding to 50% cell survival in the presence of compound as compared to untreated controls) were calculated from MTT survival curves (HCT116 and SKOV3) using BioAssay software (CambridgeSoft) and from Cell Titer-Glo survival curves (synovioycte and Jurkat cells) using GraphPad Prism (Graph Pad Software Inc.). In the below chart, EC50 values are summarized as follows: a=EC50 of less than 10 nM; b=EC50 of 10-100 nM; and c=EC50 of greater than 100 nM.

[2] = system: Colorectal carcinoma HCT116 cells; assay: HCT116 + ETR1 cell viability assay (MTT); format: cell-based; settings: with ETR1 (40 ng/ml), 72 hrs
[3] = system: Ovarian adenocarcinoma SKOV3 cells; assay: SKOV3 cell viability assay (MTT); format: cell-based; settings: Homo sapiens, SK-OV-3, 72 hours
Method: Ovarian adenocarcinoma SKOV3 cells (ATCC# HTB-77) were cultured as monolayers in McCoy's 5a medium (HyClone) supplemented with 2.2 g/L sodium bicarbonate (Gibco), 10% FBS (HyClone) and 1% penicillin/streptomycin (HyClone). Cells were seeded in tissue culture-treated 96 well plates at 5000 cells/well in 150 ul of media. After 24 hours, triplicate wells of cells were treated with various concentrations of compound (0.01 to 10000 nM) diluted in 50 ul of culture media. Cells were incubated at 37° C. (5% CO2) in the presence of compound for 72 hours. Metabolic viability of remaining cells was assessed by MTT (thiazolyl blue tetrazolium bromide, Sigma) assay. 20 ul of MTT reagent (10 mg/ml) was added per well and plates were incubated for 4 hours at 37° C. (5% CO2). The supernatant was then removed from the plate. The converted MTT product was solubilized with 100 uL of isopropanol and the absorbance was read at 570 nm using a Tecan spectrophotometer.
as §1

HCT-116 xenograft = assay: Tumor suppressive effect in combination with ETR1, HCT-116 xenograft model; format: in vivo; settings: 1 mg/kg IV, 5 on/2off; with Mapatumamab 10 mg/kg IP twice weekly; after 3 weeks of treatment; CD-1 nude mice
Method: Tumor Suppressive Effect of Compound in Combination with ETR1 using an HCT-116 Xenograft Model
(§2) Female, CD-1, nude mice received 1.5×10^6 HCT-116 cells (in 100 uL of serum-free media) subcutaneously at the right flank. When average tumor size reached ˜150 mm^3 groups were formed using a balanced design based on tumor size, and treatment commenced. Tumor bearing mice were treated with either vehicle (5% D5W; 5 mL/kg, IV) or compound (1 mg/kg, IV) using a 5 on/2off treatment schedule. Mapatumamab (10 mg/kg, IP) was given twice weekly for the duration of the experiment, commencing one day after IAP inhibitory compounds.

H460 xenograft = assay: Tumor suppressive effect in combination with Taxotere, H460 xenograft model; format: in vivo; settings: 1 mg/kg IV, 5 on/2off; with Taxotere 30 mg/kg IP; after 3 weeks of treatment; CD-1 nude mice
Method: Tumor Suppressive Effect of Compound in Combination with Taxotere using an H460 Xenograft Model
as §2, with “1×10^6 H460” for “1.5×10^6 HCT-116”, “˜100” for “˜150”, “Taxotere (30” for “Mapatumamab (10”, “twice, one week apart” for “twice weekly for the duration of the experiment,”

EC50 [2]: < 10 nM | EC50 [3]: < 10 nM
SMILES: CN[C@@H](C)C(=O)N[C@H](C(=O)N1C[C@@H](NC(=O)c2ccc(C(=O)N[C@H]3C[C@@H](C(=O)N[C@@H]4CCCc5ccccc54)N(C(=O)[C@@H](NC(=O)[C@H](C)NC)C4CCCCC4)C3)cc2)C[C@H]1C(=O)N[C@@H]1CCCc2ccccc21)C1CCCCC1 [Compound 1]
EC50 [1]: < 10 nM | tumor growth suppression relative to vehicle treated controls (HCT-116 xenograft): 59% | tumor growth suppression relative to vehicle treated controls (H460 xenograft): 54%
